Measured values reported in ChEMBL document CHEMBL3885881, “DrugMatrix”.

Species on record: Rattus norvegicus
Assay: DrugMatrix - Regimen: Daily Repeat
Type: toxicity, organism-based, Sprague-Dawley
Design: regimen Daily Repeat, gender Male, age 6-8 weeks
Details: in vivo, iv, vehicle 100 % SALINE; for ABSOLUTE BASOPHIL / ABSOLUTE EOSINOPHIL / ABSOLUTE LYMPHOCYTE / ABSOLUTE MONOCYTE / ABSOLUTE SEGMENTED NEUTROPHIL / BASOPHIL / EOSINOPHIL / ERYTHROCYTE COUNT / HEMATOCRIT / HEMOGLOBIN / LEUKOCYTE COUNT / LYMPHOCYTE / MEAN CORPUSCULAR HEMOGLOBIN / MEAN CORPUSCULAR HEMOGLOBIN CONCENTRATION / MEAN CORPUSCULAR VOLUME / MONOCYTE / NEUTROPHIL / NUCLEATED RED BLOOD CELLS / PLATELET COUNT: tissue Blood; for ALANINE AMINOTRANSFERASE / ALBUMIN / ALKALINE PHOSPHATASE / ASPARTATE AMINOTRANSFERASE / BLOOD UREA NITROGEN / CARBON DIOXIDE / CHLORIDE / CHOLESTEROL / CREATINE PHOSPHOKINASE / CREATININE / GLUCOSE / LACTATE DEHYDROGENASE / LIPASE / PHOSPHORUS / POTASSIUM / SODIUM / TOTAL BILIRUBIN / TOTAL PROTEIN / URIC ACID: tissue Plasma
[1] = 0 mg/kg, 72 h, dose level Control, time 3 day
[2] = 0 mg/kg, 120 h, dose level Control, time 5 day
[3] = […], 72 h, dose 0.0033 mg/Kg, dose level Low, time 3 day
[4] = […], 72 h, dose 0.033 mg/Kg, dose level High, time 3 day

COc1cc2c3cc1Oc1cc(ccc1O)C[C@@H]1c4c(cc(OC)c(O)c4Oc4ccc(cc4)C[C@@H]3N(C)CC2)CC[N+]1(C)C.[Cl-]
ABSOLUTE BASOPHIL [1]: 0 CELLS/uL
ABSOLUTE EOSINOPHIL [1]: 0 CELLS/uL
ABSOLUTE LYMPHOCYTE [1]: 11636.83 CELLS/uL
ABSOLUTE MONOCYTE [1]: 159 CELLS/uL
ABSOLUTE SEGMENTED NEUTROPHIL [1]: 1170.83 CELLS/uL
BASOPHIL [1]: 0%
EOSINOPHIL [1]: 0%
ERYTHROCYTE COUNT [1]: 5.46 x10E6/uL
HEMATOCRIT [1]: 34.05%
HEMOGLOBIN [1]: 13.58 G/DL
LEUKOCYTE COUNT [1]: 12.97 x10E3/uL
LYMPHOCYTE [1]: 89.67%
MEAN CORPUSCULAR HEMOGLOBIN [1]: 24.87 pg
MEAN CORPUSCULAR HEMOGLOBIN CONCENTRATION [1]: 39.9 G/DL
MEAN CORPUSCULAR VOLUME [1]: 62.3 fL
MONOCYTE [1]: 1.33%
NEUTROPHIL [1]: 9%
NUCLEATED RED BLOOD CELLS [1]: 0.17 /100WBC
PLATELET COUNT [1]: 824 x10E3/uL
ALANINE AMINOTRANSFERASE [1]: 64.83 u/L
ALBUMIN [1]: 4.08 G/DL
ALKALINE PHOSPHATASE [1]: 421 u/L
ASPARTATE AMINOTRANSFERASE [1]: 116.83 u/L
BLOOD UREA NITROGEN [1]: 16.83 mg/dL
CARBON DIOXIDE [1]: 28 mmol/L
CHLORIDE [1]: 101.33 MEQ/L
CHOLESTEROL [1]: 74.17 mg/dL
CREATINE PHOSPHOKINASE [1]: 748.5 u/L
CREATININE [1]: 0.22 mg/dL
GLUCOSE [1]: 152.83 mg/dL
LACTATE DEHYDROGENASE [1]: 578.5 u/L
LIPASE [1]: 9.83 u/L
PHOSPHORUS [1]: 11.63 mg/dL
POTASSIUM [1]: 5.93 MEQ/L
SODIUM [1]: 142.1 MEQ/L
TOTAL BILIRUBIN [1]: 0.17 mg/dL
TOTAL PROTEIN [1]: 5.77 G/DL
URIC ACID [1]: 1.43 mg/dL
ABSOLUTE BASOPHIL [2]: 0 CELLS/uL
ABSOLUTE EOSINOPHIL [2]: 159.17 CELLS/uL
ABSOLUTE LYMPHOCYTE [2]: 12267.5 CELLS/uL
ABSOLUTE MONOCYTE [2]: 30 CELLS/uL
ABSOLUTE SEGMENTED NEUTROPHIL [2]: 1160 CELLS/uL
BASOPHIL [2]: 0%
EOSINOPHIL [2]: 1.17%
ERYTHROCYTE COUNT [2]: 5.52 x10E6/uL
HEMATOCRIT [2]: 34.3%
HEMOGLOBIN [2]: 13.73 G/DL
LEUKOCYTE COUNT [2]: 13.62 x10E3/uL
LYMPHOCYTE [2]: 90.5%
MEAN CORPUSCULAR HEMOGLOBIN [2]: 24.92 pg
MEAN CORPUSCULAR HEMOGLOBIN CONCENTRATION [2]: 40.07 G/DL
MEAN CORPUSCULAR VOLUME [2]: 62.17 fL
MONOCYTE [2]: 0.17%
NEUTROPHIL [2]: 8.17%
NUCLEATED RED BLOOD CELLS [2]: 0.17 /100WBC
PLATELET COUNT [2]: 1261.83 x10E3/uL
ALANINE AMINOTRANSFERASE [2]: 58.67 u/L
ALBUMIN [2]: 4.15 G/DL
ALKALINE PHOSPHATASE [2]: 364.67 u/L
ASPARTATE AMINOTRANSFERASE [2]: 105.33 u/L
BLOOD UREA NITROGEN [2]: 17.67 mg/dL
CARBON DIOXIDE [2]: 26.5 mmol/L
CHLORIDE [2]: 101.67 MEQ/L
CHOLESTEROL [2]: 63 mg/dL
CREATINE PHOSPHOKINASE [2]: 480.67 u/L
CREATININE [2]: 0.17 mg/dL
GLUCOSE [2]: 144.67 mg/dL
LACTATE DEHYDROGENASE [2]: 540.33 u/L
LIPASE [2]: 10.33 u/L
PHOSPHORUS [2]: 11.52 mg/dL
POTASSIUM [2]: 6.12 MEQ/L
SODIUM [2]: 142.45 MEQ/L
TOTAL BILIRUBIN [2]: 0.18 mg/dL
TOTAL PROTEIN [2]: 5.73 G/DL
URIC ACID [2]: 1.48 mg/dL
ABSOLUTE BASOPHIL [3]: 0 CELLS/uL
ABSOLUTE EOSINOPHIL [3]: 38.67 CELLS/uL
ABSOLUTE LYMPHOCYTE [3]: 9113.67 CELLS/uL
ABSOLUTE MONOCYTE [3]: 101 CELLS/uL
ABSOLUTE SEGMENTED NEUTROPHIL [3]: 846.67 CELLS/uL
BASOPHIL [3]: 0%
EOSINOPHIL [3]: 0.33%
ERYTHROCYTE COUNT [3]: 5.25 x10E6/uL
HEMATOCRIT [3]: 31.97%
HEMOGLOBIN [3]: 12.93 G/DL
LEUKOCYTE COUNT [3]: 10.1 x10E3/uL
LYMPHOCYTE [3]: 90.33%
MEAN CORPUSCULAR HEMOGLOBIN [3]: 24.73 pg
MEAN CORPUSCULAR HEMOGLOBIN CONCENTRATION [3]: 40.53 G/DL
MEAN CORPUSCULAR VOLUME [3]: 60.97 fL
MONOCYTE [3]: 1%
NEUTROPHIL [3]: 8.33%
NUCLEATED RED BLOOD CELLS [3]: 0 /100WBC
PLATELET COUNT [3]: 798.67 x10E3/uL
ABSOLUTE BASOPHIL [4]: 0 CELLS/uL
ABSOLUTE EOSINOPHIL [4]: 61.33 CELLS/uL
ABSOLUTE LYMPHOCYTE [4]: 18023 CELLS/uL
ABSOLUTE MONOCYTE [4]: 62 CELLS/uL
ABSOLUTE SEGMENTED NEUTROPHIL [4]: 687 CELLS/uL
BASOPHIL [4]: 0%
EOSINOPHIL [4]: 0.33%
ERYTHROCYTE COUNT [4]: 5 x10E6/uL
HEMATOCRIT [4]: 31.67%
HEMOGLOBIN [4]: 13 G/DL
LEUKOCYTE COUNT [4]: 18.83 x10E3/uL
LYMPHOCYTE [4]: 95.67%
MEAN CORPUSCULAR HEMOGLOBIN [4]: 26 pg
MEAN CORPUSCULAR HEMOGLOBIN CONCENTRATION [4]: 41.03 G/DL
MEAN CORPUSCULAR VOLUME [4]: 63.33 fL
MONOCYTE [4]: 0.33%
NEUTROPHIL [4]: 3.67%
NUCLEATED RED BLOOD CELLS [4]: 0 /100WBC
PLATELET COUNT [4]: 1148.67 x10E3/uL
